In patent publication US11857584B2, “Oncolytic virus growth method and antitumor agent” (KABUSHIKI KAISHA YAKULT HONSHA, priority 2017, dated 2024):

How the values were obtained:
CVA11 = experiment: Promotion of CVA11 proliferation (virus titer) in WiDr cells; format: cell-based, coxsackievirus A11; details: then CVA11 MOI 0.01, about 30 hours, t-test
CVB3 = experiment: Promotion of CVB3 proliferation (virus titer) in WiDr cells; format: cell-based, coxsackievirus B3
[1] = Body weight change (adverse event) in WiDr-bearing nude mice; details: oxaliplatin 100 μg i.p. day 1; CVA11 5×10^7 PFU intratumoral days 2, 4, 6, 8, 10
Procedure: WiDr was washed with PBS and suspended in OPTI-MEM I at 5.0×10^7 cells/mL. 100 μl of the suspension containing WiDr was injected subcutaneously with a 27 G needle into the right flank of BALB/c nude mice of 6-8 weeks old. […] The tumor volume was calculated by major axis×minor axis×minor axis×0.5. The test was conducted using 5 mice in each group, and the t-test was used as the test.

[2] = test system: ICAM-1 (intercellular adhesion molecule 1); experiment: Virus receptor expression by real-time PCR in WiDr cells, ICAM-1; format: cell-based, human; details: oxaliplatin 50 μM about 42 hours, or CVA11 added about 20 hours after seeding, t-test
Procedure: (§1) The cultured oxaliplatin-resistant colon cancer cell line (WiDr) was suspended in DMEM medium at 3×10^6 cells/mL. To each well of a 96-well plate, 100 μl of the obtained cell suspension was dispensed and the cells were seeded at 3×10^5 cells/well. […] Thereafter, the plate was allowed to stand for about 42 hours at 37° C., 5% CO2, and then mRNA was collected to prepare cDNA. […] The expressions of DAF (decay accelerating factor) and ICAM-1 (intercellular adhesion molecule 1) were compared by real-time PCR. The t-test was used as the test.

AAV = experiment: Promotion of AAV proliferation (virus copy number, real-time PCR) in WiDr cells; format: cell-based
Procedure: pAAV-CMV Vector (manufactured by Takara Bio Co., Ltd.) was used as AAV. pAAV-CMV Vector was prepared using AAVpro (registered trademark) Helper Free System (manufactured by Takara Bio Co., Ltd.). The collected supernatant (virus solution) was stored at −80° C.
The cultured oxaliplatin-resistant colon cancer cell line (WiDr) was suspended in DMEM medium at […]. To each well of a 96-well plate, 100 μl of the obtained cell suspension was dispensed and the cells were seeded at 3×10^5 cells/well. […] Subsequently, the plate was allowed to stand for about 24 hours at 37° C., 5% CO2, and then AAV was added thereto at a MOI of 0.01. After the plate was allowed to stand for about 30 hours at 37° C., 5% CO2, virus copy numbers were measured using AAVpro (registered trademark) Titration Kit (for Real Time PCR) Ver.2 (manufactured by Takara Bio Co., Ltd.). The t-test was used as the test.

[3] = test system: DAF (decay accelerating factor); experiment: Virus receptor expression by real-time PCR in WiDr cells, DAF; format: cell-based, human; details: oxaliplatin 50 μM about 42 hours, or CVA11 added about 20 hours after seeding, t-test
Procedure: as §1

With `O=c1[nH]cc(F)c(=O)[nH]1` [5-FU, 5-fluorouracil] the “CVA11 virus load (virus titer)” value (CVA11; 5-FU 50 μM) was “significant increase in CVA11 virus load”.
For `CCc1c2c(nc3ccc(O)cc13)-c1cc3c(c(=O)n1C2)COC(=O)[C@]3(O)CC` [SN-38, 7-ethyl-10-hydroxycamptothecin], the “CVA11 virus load (virus titer)” value (CVA11; SN-38 1.0, 5.0 or 50 μM) was “significant increase in CVA11 virus load”.
With `N.N.[Cl][Pt][Cl]` [cisplatin] the “CVB3 virus load (virus titer)” value (CVB3; cisplatin 0.5 or 1.0 μM, then CVB3 MOI 0.01) was “no increase in CVB3 virus load was observed”.
For `O=C1[O][Pt]2([NH][C@@H]3CCCC[C@H]3[NH]2)[O]C1=O` [oxaliplatin], the “body weight loss, compared with untreated group” value [1] was “no significant weight loss was observed”, the “CVB3 virus load (virus titer)” value (CVB3; oxaliplatin 1 μM, then CVB3 MOI 0.01, t-test) was “significant increase” and the “CVB3 virus load (virus titer)” value (CVB3; oxaliplatin 0.5 or 1.0 μM, then CVB3 MOI 0.01, about 30 hours) was “increase in CVB3 virus load was observed”. For the same compound, the “expression of ICAM-1 (real-time PCR)” value [2] was “significantly increased”, the “CVA11 virus load (virus titer)” value (CVA11; oxaliplatin 50 μM, vs CVA11 only) was “significant increase in CVA11 virus load” and the “copy number of AAV” value (AAV; oxaliplatin 0.25, 0.5, 1.0 or 2.5 μM, then AAV MOI 0.01, about 30 hours, t-test) was “significant, increase in the copy number of AAV”. For the same compound, the “copy number of AAV” value (AAV; oxaliplatin 0.25 to 1.0 μM, then AAV MOI 0.01) was “remarkable increase” and the “expression of DAF (real-time PCR)” value [3] was “significantly increased”.
